Measured values reported in article PMC12498426, “Conformational Plasticity of LptC Regulates Lipopolysaccharide Transport by the LptB2FGC Complex” (Journal of the American Chemical Society, 2025).

How the values were obtained:
LptB2FG [1] = target: T1, LptB2FG (Escherichia coli, UniProt P0A9V1+P0ADC6+P0AF98); design: gene lptF; settings: POPE/POPG liposomes; 20 mM MgCl2; pH 7.5; 37 °C; 0-5 mM ATP; no LPS
T1 sequence (P0AF98 1-366): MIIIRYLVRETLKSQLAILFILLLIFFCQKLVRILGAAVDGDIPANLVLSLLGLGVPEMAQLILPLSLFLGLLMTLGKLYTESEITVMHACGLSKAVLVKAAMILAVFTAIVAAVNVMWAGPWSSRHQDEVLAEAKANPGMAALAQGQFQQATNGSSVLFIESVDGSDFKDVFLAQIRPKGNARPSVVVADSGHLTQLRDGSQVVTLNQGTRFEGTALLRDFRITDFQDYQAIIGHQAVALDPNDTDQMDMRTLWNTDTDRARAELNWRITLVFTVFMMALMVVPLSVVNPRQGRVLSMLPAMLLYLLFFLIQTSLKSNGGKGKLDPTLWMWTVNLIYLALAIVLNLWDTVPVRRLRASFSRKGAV
T1 sequence (P0ADC6 1-360): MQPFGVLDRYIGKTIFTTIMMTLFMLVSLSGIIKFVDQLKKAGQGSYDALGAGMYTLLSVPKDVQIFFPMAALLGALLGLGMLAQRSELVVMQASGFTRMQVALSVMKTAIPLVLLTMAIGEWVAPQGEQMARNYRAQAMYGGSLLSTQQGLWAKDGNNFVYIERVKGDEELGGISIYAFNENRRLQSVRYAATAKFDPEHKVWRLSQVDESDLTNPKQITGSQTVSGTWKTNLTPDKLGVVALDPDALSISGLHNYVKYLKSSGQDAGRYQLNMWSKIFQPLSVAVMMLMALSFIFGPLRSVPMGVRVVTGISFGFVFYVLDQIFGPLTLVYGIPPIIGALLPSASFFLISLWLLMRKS
T1 sequence (P0A9V1 2-241): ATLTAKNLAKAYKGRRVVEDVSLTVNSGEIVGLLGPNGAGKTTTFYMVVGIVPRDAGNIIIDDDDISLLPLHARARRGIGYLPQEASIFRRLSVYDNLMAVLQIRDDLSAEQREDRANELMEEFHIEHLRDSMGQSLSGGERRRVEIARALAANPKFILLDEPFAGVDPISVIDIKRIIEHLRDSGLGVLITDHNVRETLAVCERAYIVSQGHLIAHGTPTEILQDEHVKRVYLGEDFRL

LptB2FGC = target: T2, LptB2FGC (Escherichia coli, UniProt P0A9V1+P0ADC6+P0AF98); test: nanoDSF thermal shift; assay type: binding; settings: 2-fold molar excess of Ra-LPS; DDM micelles; pH 7.5; 5 mM MgCl2
T2 construct: gene lptF; in vitro assembled from LptB2FG (N-terminal His6 on LptB) and full-length LptC (C-terminal His6); liposomes or resolubilized in DDM; 2:1:1:1, 158 kDa; with Lipopolysaccharide export system protein LptC

LptB2FG [2] = target: T1, LptB2FG; test: nanoDSF thermal shift; assay type: binding; design: gene lptF; full-length proteins, N-terminal His6-tag on LptB, pETDuet-1, expressed in E. coli, in DDM micelles or POPE/POPG liposomes; B2FG complex; settings: 2-fold molar excess of Ra-LPS; DDM micelles; pH 7.5; 5 mM MgCl2
LptB2FG complex [3] = target: T3, LptB2FG complex (E. coli, UniProt P0A9V1 1-241; P0AF98 1-366; P0ADC6 1-360); test: native MS; LILBID-MS of LptB2FGC resolubilised in DDM micelles, apo state, 20 mM Tris-HCl pH 7.5, 0.05% DDM; settings: both partners purified
T3 construct: LptF, transmembrane domain subunit of the lipopolysaccharide transporter, E. coli; LptG, transmembrane domain subunit of the lipopolysaccharide transporter, E. coli; Uniformly 13C-labelled for the TEDOR experiments; also called 13C-LptB2FG; ABC transporter LptB2FG; source: E. coli, co-expressed from pETDuet-1, membranes solubilised in DDM, purified (Ni-NTA); expression as previously described; …
T3 sequence (looked up) 1: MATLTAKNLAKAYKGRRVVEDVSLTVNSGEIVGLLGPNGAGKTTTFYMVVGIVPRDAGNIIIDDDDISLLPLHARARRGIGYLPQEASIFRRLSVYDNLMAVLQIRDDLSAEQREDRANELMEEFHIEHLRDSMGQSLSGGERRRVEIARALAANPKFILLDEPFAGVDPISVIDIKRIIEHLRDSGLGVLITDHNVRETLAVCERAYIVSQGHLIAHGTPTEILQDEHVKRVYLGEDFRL
T3 sequence (looked up) 2: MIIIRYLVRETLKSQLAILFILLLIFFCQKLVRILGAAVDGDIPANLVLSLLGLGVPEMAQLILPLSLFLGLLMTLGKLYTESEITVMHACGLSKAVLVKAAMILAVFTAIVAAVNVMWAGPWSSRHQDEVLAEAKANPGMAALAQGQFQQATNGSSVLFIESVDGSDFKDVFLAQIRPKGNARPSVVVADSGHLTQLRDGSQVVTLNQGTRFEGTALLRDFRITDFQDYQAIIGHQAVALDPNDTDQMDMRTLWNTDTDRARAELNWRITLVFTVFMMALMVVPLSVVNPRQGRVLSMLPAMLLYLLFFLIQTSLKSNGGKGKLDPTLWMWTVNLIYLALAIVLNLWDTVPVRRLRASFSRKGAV
T3 sequence (looked up) 3: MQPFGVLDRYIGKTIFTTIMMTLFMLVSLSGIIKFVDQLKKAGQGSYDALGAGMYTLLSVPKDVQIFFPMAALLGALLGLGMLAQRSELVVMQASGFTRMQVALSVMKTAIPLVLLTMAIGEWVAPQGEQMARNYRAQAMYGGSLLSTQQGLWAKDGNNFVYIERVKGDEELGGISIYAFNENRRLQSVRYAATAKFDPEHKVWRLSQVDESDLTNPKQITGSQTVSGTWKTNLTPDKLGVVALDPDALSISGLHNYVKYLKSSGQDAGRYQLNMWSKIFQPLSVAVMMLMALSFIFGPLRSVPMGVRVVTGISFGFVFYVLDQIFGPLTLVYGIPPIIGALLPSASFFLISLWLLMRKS

LptB2FG complex [4] = target: T3, LptB2FG complex; test: thermal shift assay (nanoDSF); LptB2FG and resolubilised LptB2FGC in 50 mM HEPES pH 7.5, 150 mM NaCl, 5 mM MgCl2, 5% glycerol, 0.05% DDM; 1 °C/min from 25 to 85 °C; first derivative of the 350 nm fluorescence; settings: both partners purified

Molecule: Nc1ncnc2c1ncn2[C@@H]1O[C@H](COP(=O)(O)OP(=O)(O)OP(=O)(O)O)[C@@H](O)[C@H]1O [ATP]
- malachite green ATPase assay, proteoliposomes (LptB2FG [1]): activity of LptB2FG and LptB2FGC was determined by measuring the release of inorganic phosphate

Molecule: Ra-LPS
- increase in melting temperature (LptB2FGC): -271 °C
- shift in melting temperature (LptB2FG [2]): ~ 9 K

B1: LptC, full length with its transmembrane helix (natural protein, E. coli, UniProt P0ADV9 1-191, looked up)
chain: MSKARRWVIIVLSLAVLVMIGINMAEKDDTAQVVVNNNDPTYKSEHTDTLVYNPEGALSYRLIAQHVEYYSDQAVSWFTQPVLTTFDKDKIPTWSVKADKAKLTNDRMLYLYGHVEVNALVPDSQLRRITTDNAQINLVTQDVTSEDLVTLYGTTFNSSGLKMRGNLRSKNAELIEKVRTSYEIQNKQTQP
notes: LptC, E. coli, full length including the transmembrane helix; Isotope labelled for NMR (13C,15N-lysine or uniform 15N); also called 15N-LptC; 15N,13C-Lys-LptC; source: E. coli BL21(DE3), pBAD33.1, membranes solubilised in LS detergent, purified (Ni-NTA)
- stoichiometry N (LptB2FG complex [3]): 1 LptC per LptB2FG
- increase of melting temperature (nanoDSF) (LptB2FG complex [4]): 11 K
